pIC50: −log10 of the molar value.
Legend:
SW48 cells = experiment: Proliferation assay SW48 (CellTiterGlo); assay type: cell-based; conditions: Homo sapiens, SW48, 96 h, SW48 colon carcinoma cells, 96 hours, CellTiterGlo; geometric mean of at least 2; read-out: Proliferation Assay SW48 GI50
Source text: (§1) The colon carcinoma cell lines SW48 (RRID: CVCL_1724), HCT 116 (RRID: CVCL_0291) and SNU-407 (RRID: CVCL_5058) were obtained from ATCC. The WRN-knockdown insensitive colon carcinoma cell line DLD-1 (RRID: CVCL_0248) was obtained from the Korean Cell Line Bank (KCLB), and used to generate a derivative in which the endogenous WRN gene copies were knocked out by CRISPR-mediated editing using standard CRISPR methods. The resulting cell line, DLD1-WRN-KO, was used to assess potential off-target compound effects.
SW48, SNU-407 and DLD1-WRN-KO cells were cultured in growth medium composed of RPMI-1640 (Amimed Cat #1-41F22-1), 2 mM L-Glutamine (Amimed Cat #5-10K50), 10 mM HEPES (Gibco Cat #15630-056), 1 mM sodium pyruvate (Amimed Cat #5-60F00-H), 1× Penicillin-Streptomycin (Amimed Cat #4-01F00-H) and 10% fetal calf serum (Amimed Cat #2-01F30-G, Lot #LB11566P). HCT 116 cells were cultured in growth medium composed of McCoys 5A (Amimed catalog #1-18F01-1), 2 mM L-Glutamine (Amimed Cat #5-10K50), 1× Penicillin-Streptomycin (Amimed Cat #4-01F00-H) and 10% fetal calf serum (Amimed Cat #2-01F30-G, Lot #LB11566P). All cells were maintained at 37° C. in a humidified 5% CO2 incubator.
Following filtration through a Steriflip-NY 20 μm filter (Millipore Cat #SCNY00020), trypsinized cells were seeded in 100 microliters growth medium at 2,000 (SW48) or 1,500 (SNU-407, DLD1-WRN-KO, HCT 116) cells/well into white, clear-bottom 96-well plates (Costar Cat #3903). Three replicate plates were prepared for each compound treatment condition. In addition, one plate (termed “day 0”) was prepared to quantify the number of viable cells at the time of compound addition. Following overnight incubation at 37° C. in a humidified 5% CO2 atmosphere, eight 3-fold serial dilutions of a given compound stock (obtained at a concentration of 10 mM in DMSO and stored at 4° C.) were dispensed directly into each of the triplicate assay plates using a HP 300D non-contact Digital Dispenser (TECAN). The final concentration of DMSO was normalized to 0.1% in all wells. 96 hours after compound addition, cellular ATP levels as a surrogate for cell viability was assessed following addition of 50 microliters CellTiterGlo (Promega Cat #G7573) reagent and luminescence quantification on a MPLEX multi-mode plate-reader (TECAN) following a 10 minute incubation at room temperature. The number of viable cells in the “day 0” plate were quantified identically on the day of compound addition.
For data analysis, the assay background signal that was determined in wells containing medium, but no cells, was subtracted from all other data points prior to further calculations. The extent of growth inhibition and potential cell kill was assessed by comparing the ATP levels (measured using CellTiterGlo, Promega) in compound-treated cells with those present at the time of compound addition. To this end, the following conditional concept was programmatically applied in HELIOS, an in-house software applying a multi-step decision tree to arrive at optimal concentration response curve fits (Gubler et al, SLAS DOI: 10.1177/2472555217752140) to calculate % growth (% G) for each compound-treated well: % G=(T−V0)/V0))*100 when T<V0, and % G=(T−V0)/(V−V0)))*100 when T≥V0, where V0 is the viability level at time of compound addition, while V and T represent vehicle-control and compound-treated viability levels, respectively, at the end of the compound incubation. 100%, 0% and −100% signify absence of growth inhibition, growth stasis, and complete cell kill, respectively. Compound concentrations leading to half-maximal growth inhibition (GI50) and residual cell viability at the highest tested compound concentration (Data (cmax), expressed in percent) were routinely calculated. Data analysis can also be carried out using commercially available software designed to derive IC50 values using 4-parameter fits (e.g. GraphPad Prism, XL fit). […]

[1] = molecular target: T1, WRN helicase (aa N517-P1238) (Homo sapiens, UniProt Q14191); experiment: WRN ATPase assay (DNA dependent ATP hydrolysis, ADP-Glo); assay type: biochemical; conditions: 3 hours pre-incubation, 300 micromolar ATP, FLAP26 DNA; geometric mean of at least 2
T1 construct: The core helicase motif of the WRN protein (aa N517-P1238) was produced for this assay; His (N); ZZ (N); 3C protease cleavage site (N); made in house; host or cells: Sf21 insect cells (baculovirus; virus and BIICs made in SF9)
T1 sequence (Q14191 517-1238): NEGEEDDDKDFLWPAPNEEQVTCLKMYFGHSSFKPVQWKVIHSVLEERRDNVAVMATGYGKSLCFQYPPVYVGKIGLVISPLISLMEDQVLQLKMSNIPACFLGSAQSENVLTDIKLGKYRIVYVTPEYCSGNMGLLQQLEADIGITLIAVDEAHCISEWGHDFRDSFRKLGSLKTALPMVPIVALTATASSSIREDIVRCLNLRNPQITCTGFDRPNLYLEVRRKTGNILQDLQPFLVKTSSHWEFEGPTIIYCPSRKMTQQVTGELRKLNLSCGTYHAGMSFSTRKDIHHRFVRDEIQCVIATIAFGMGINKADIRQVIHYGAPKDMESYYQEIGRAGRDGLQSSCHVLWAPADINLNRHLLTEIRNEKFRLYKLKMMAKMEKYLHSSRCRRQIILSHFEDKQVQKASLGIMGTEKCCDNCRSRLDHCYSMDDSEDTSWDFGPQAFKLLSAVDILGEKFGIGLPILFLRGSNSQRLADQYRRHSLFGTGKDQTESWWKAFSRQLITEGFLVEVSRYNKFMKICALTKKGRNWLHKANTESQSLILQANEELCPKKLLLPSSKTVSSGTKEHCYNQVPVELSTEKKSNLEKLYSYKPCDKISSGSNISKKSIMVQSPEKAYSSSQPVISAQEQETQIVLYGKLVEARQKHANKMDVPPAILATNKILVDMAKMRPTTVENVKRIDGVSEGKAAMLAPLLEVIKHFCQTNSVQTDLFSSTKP
Source text: An ATPase assay was set up to measure the DNA dependent ATP hydrolysis activity of WRN helicase. This assay was used also to assess the inhibition properties of compounds of the invention on DNA dependent WRN ATPase activity.
The core helicase motif of the WRN protein (aa N517-P1238) was produced for this assay (protein production as described above). […] The ADP-Glo assay kit (Promega, Madison, WI) allowing the quantification of ADP produced in ATP hydrolysis reactions was used for setting up this assay.
Time course experiments were first performed in order to determine the best enzymatic assay conditions (including buffer conditions, reaction time and concentrations of protein, ATP and DNA substrates). A typical reaction consists of 10 nM WRN protein, 0.2 nM FLAP26, and 300 micromolar ATP in the following assay buffer: 30 mM Tris pH7.5, 2 mM MgCl2, 0.02% BSA, 50 mM NaCl, 0.1% pluronic F127 prepared in DNAse free water.
To evaluate the inhibition properties of compounds of the invention, serial dilutions were prepared in DMSO (10 half log dilutions from a 10 mM DMSO solution). […] The reaction was stopped with the addition of 5 microliters of the first ADP-Glo reagent and incubated for one hour to remove the excess amount of ATP. Afterwards, 10 microliters of ATP detection reagent was added and incubated for an additional hour before reading. Luminescence output was recorded using Tecan 1000 reader, with 5 minutes delay before reading. Each concentration of compound was tested in duplicates in the assay plate.
Following normalization of activity values for the wells to % inhibition (% inhibition=[(high control-sample)/(high control-low control)]×100), IC50 fitting was carried out from the duplicate determinations present on each plate according to [4]. Data analysis can also be carried out using commercially available software designed to derive IC50 values using 4-parameter fits (e.g. GraphPad Prism, XL fit). The reported IC50 values are the geometrical means of at least 2 independent replicates.

DLD1-WRN-KO cells = experiment: Proliferation assay DLD1-WRN-KO (CellTiterGlo, off-target effects); assay type: cell-based; conditions: 96 hours, geometric mean of at least 2
Experimental: as §1, with “The” for “The colon carcinoma cell lines SW48 (RRID: CVCL_1724), HCT 116 (RRID: CVCL_0291) and SNU-407 (RRID: CVCL_5058) were obtained from ATCC. The”, “effects. […]” for “effects.”
Three replicate plates were prepared for each compound treatment condition. In addition, one plate (termed “day 0”) was prepared to quantify the number of viable cells at the time of compound addition. Following overnight incubation at 37° C. in a humidified 5% CO2 atmosphere, eight 3-fold serial dilutions of a given compound stock (obtained at a concentration of 10 mM in DMSO and stored at 4° C.) were dispensed directly into each of the triplicate assay plates using a HP 300D non-contact Digital Dispenser (TECAN). The final concentration of DMSO was normalized to 0.1% in all wells. 96 hours after compound addition, cellular ATP levels as a surrogate for cell viability was assessed following addition of 50 microliters CellTiterGlo (Promega Cat #G7573) reagent and luminescence quantification on a MPLEX multi-mode plate-reader (TECAN) following a 10 minute incubation at room temperature. The number of viable cells in the “day 0” plate were quantified identically on the day of compound addition.
For data analysis, the assay background signal that was determined in wells containing medium, but no cells, was subtracted from all other data points prior to further calculations. The extent of growth inhibition and potential cell kill was assessed by comparing the ATP levels (measured using CellTiterGlo, Promega) in compound-treated cells with those present at the time of compound addition. […] 100%, 0% and −100% signify absence of growth inhibition, growth stasis, and complete cell kill, respectively. Compound concentrations leading to half-maximal growth inhibition (GI50) and residual cell viability at the highest tested compound concentration (Data (cmax), expressed in percent) were routinely calculated. Data analysis can also be carried out using commercially available software designed to derive IC50 values using 4-parameter fits (e.g. GraphPad Prism, XL fit). The reported GI50 values are the geometrical means of at least 2 independent replicates.

GI50 (SW48 cells)	pIC50 [1]	GI50 (DLD1-WRN-KO cells)	SMILES
5 µM	6.00	> 10 µM	CC(=O)N1CCN(c2c(C)n(CC(=O)Nc3ccc(C(F)(F)F)cc3)c3nc(N4CCCC(F)C4)nn3c2=O)CC1 (stereo not drawn) [Example 1, 2-(6-(4-acetylpiperazin-1-yl)-2-(3-fluoropiperidin-1-yl)-5-methyl-7-oxo-[1,2,4]triazolo[1,5-a]pyrimidin-4(7H)-yl)-N-(4-(trifluoromethyl)phenyl)acetamide]
> 10 µM	6.52	> 10 µM	CC(=O)N1CCN(c2nc3n(CC(=O)Nc4ccc(Cl)cc4)c(C)c(N4CCN(C(=O)c5ccncc5O)CC4)c(=O)n3n2)CC1 [Example 2, 2-(2-(4-acetylpiperazin-1-yl)-6-(4-(3-hydroxyisonicotinoyl)piperazin-1-yl)-5-methyl-7-oxo-[1,2,4]triazolo[1,5-a]pyrimidin-4(7H)-yl)-N-(4-chlorophenyl)acetamide]
3 µM	7.00	10 µM	CC(=O)N1CCN(c2c(C)n(CC(=O)Nc3ccc(Cl)cc3)c3nc(-c4ccccc4)nn3c2=O)CC1 [Example 3, 2-(6-(4-acetylpiperazin-1-yl)-5-methyl-7-oxo-2-phenyl-[1,2,4]triazolo[1,5-a]pyrimidin-4(7H)-yl)-N-(4-chlorophenyl)acetamide]
8 µM	5.70	> 10 µM	CC(=O)N1CCN(c2c(C)n(CC(=O)Nc3ccc(C(F)(F)F)nc3Cl)c3nc(N4CCCC(F)C4)nn3c2=O)CC1 (stereo not drawn) [Example 5, 2-(6-(4-acetylpiperazin-1-yl)-2-(3-fluoropiperidin-1-yl)-5-methyl-7-oxo-[1,2,4]triazolo[1,5-a]pyrimidin-4(7H)-yl)-N-(2-chloro-6-(trifluoromethyl)pyridin-3-yl)acetamide]
7 µM	5.70	> 10 µM	CC(=O)N1CCN(c2c(C)n(CC(=O)Nc3ccc(C(F)(F)F)cc3)c3nc(N4CCC5CC54)nn3c2=O)CC1 (stereo not drawn) [Example 6, 2-(6-(4-acetylpiperazin-1-yl)-2-(2-azabicyclo[3.1.0]hexan-2-yl)-5-methyl-7-oxo-[1,2,4]triazolo[1,5-a]pyrimidin-4(7H)-yl)-N-(4-(trifluoromethyl)phenyl)acetamide]
0.06 µM	7.30	> 10 µM	CCc1c(N2CCN(C(=O)c3ncc4c(c3O)OCC4)CC2)c(=O)n2nc(C3=CCOCC3)nc2n1CC(=O)Nc1ccc(C(F)(F)F)cc1Cl [Example 11, N-(2-chloro-4-(trifluoromethyl)phenyl)-2-(2-(3,6-dihydro-2H-pyran-4-yl)-5-ethyl-6-(4-(7-hydroxy-2,3-dihydrofuro[3,2-c]pyridine-6-carbonyl)piperazin-1-yl)-7-oxo-[1,2,4]triazolo[1,5-a]pyrimidin-4(7H)-yl)acetamide]
0.8 µM	8.00	> 10 µM	CCc1c(N2CCN(C(=O)c3nn(C)c(=O)[nH]3)CC2)c(=O)n2nc(C3=CCCC3)nc2n1CC(=O)Nc1ccc(C(F)(F)F)cc1 [Example 12, 2-(2-(cyclopent-1-en-1-yl)-5-ethyl-6-(4-(1-methyl-5-oxo-4,5-dihydro-1H-1,2,4-triazole-3-carbonyl)piperazin-1-yl)-7-oxo-[1,2,4]triazolo[1,5-a]pyrimidin-4(7H)-yl)-N-(4-(trifluoromethyl)phenyl)acetamide]
0.3 µM	7.52	> 10 µM	Cc1c(N2CCN(C(=O)c3c(F)ccc(F)c3O)CC2)c(=O)n2nc(C3=CCOCC3)nc2n1CC(=O)Nc1ccc(C(F)(F)F)cc1 [Example 13, 2-(6-(4-(3,6-difluoro-2-hydroxybenzoyl)piperazin-1-yl)-2-(3,6-dihydro-2H-pyran-4-yl)-5-methyl-7-oxo-[1,2,4]triazolo[1,5-a]pyrimidin-4(7H)-yl)-N-(4-(trifluoromethyl)phenyl)acetamide]

Reference: US20260250289A1, “BICYCLIC HETEROCYCLES AND THEIR USE AS WRN INHIBITORS” (Novartis AG, priority 2022, published 2026)
